Reference: patent US20230123334A1, “AMINO LIPID COMPOUND, PREPARATION METHOD THEREFOR, AND APPLICATION THEREOF” (SHENZHEN SHENXIN BIOTECHNOLOGY CO., LTD., priority 2020, published 2023)

Legend:
HEK293 cells [1] = test: Preliminary screening as DNA vectors, GFP transfection of HEK293 cells; assay type: cell-based; conditions: HEK293 cells; lipid/DOPE liposome with 75 ng plasmid DNA (psin-EGFP-IRES-Puro); number of cells expressing GFP divided by total number of nuclei (Hoechst)
Summary of the method: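 HEK293 cells in DMEM/10% FBS transfected with 75 ng EGFP plasmid per well complexed with amino lipid/DOPE liposomes in pH 5.6 sodium acetate. Hoechst nuclear stain added 20-24 h post-transfection, then cells cultured another 20-24 h. Confocal imaging gives GFP-positive cells as % of total nuclei.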

HEK293 cells [2] = test: Preliminary screening as mRNA vectors, EGFP mRNA transfection of HEK293 cells; assay type: cell-based; conditions: HEK293 cells, 96-well plates, EGFP mRNA 50 ng per well; percentage of GFP fluorescent cells relative to total number of cells (Hoechst)
Summary of the method: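 HEK293 cells in DMEM plus 10% FBS transfected in 96-well format with 50 ng EGFP mRNA per well; Lipofectamine2000 served as positive control. Read-out is the percentage of GFP-fluorescent cells among total cells, counted by Hoechst nuclear stain.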

Structure (SMILES)	Absolute DNA transfection efficiency in HEK293 cells (HEK293 cells [1])	Absolute mRNA transfection efficiency in HEK293 cells (HEK293 cells [2])
CCCCCCCCCCCCCCCCNc1nc(NCCCCCC)nc(NCCN2CCN(C)CC2)n1 [Compound N6N16D5]	0.0%	0.1%
CCCCCCCCCCCCCCCNc1nc(NCCCCCCCCCCCC)nc(NCCCN2CCN(C)CC2)n1 [Compound N12N15D9]	1.5%	0.9%
CCCCCCCCCCSc1nc(NCC2CCN(C)CC2)nc(SCCCCCCCCC)n1 [Compound S9S10D10]	18.7%	47.2%
CCCCCCCCCCCCCCCCSc1nc(NCCN(CC)CC)nc(SCCCCCCCCCCCCCCC)n1 [Compound S15S16D7]	0.6%	0.4%
CCCCCCCCCCCCCCCCCCNc1nc(NCCN2CCOCC2)nc(N(CCCCCCCCCCCC)CCCCCCCCCCCC)n1 [N18^2N12D2]	0.0%	0.1%
CCCCCCCCCCCCCCCCNc1nc(NCCCCCCC)nc(NCCCN2CCOCC2)n1 [Compound N7N16D8]	0.1%	0.0%
CCCCCCCCNc1nc(NCCCCCC)nc(NCCN2CCCC2)n1 [Compound N6N8D3]	0.1%	0.4%
CCCCCCCCCCCCCCCCCCNc1nc(NCCCCCCC)nc(NCCN(C)C)n1 [Compound N7N18D1]	1.0%	2.3%
CCCCCCCCCCCCCCCCSc1nc(NCCCN2CCOCC2)nc(SCCCCCCCC)n1 [Compound S8S16D8]	28.6%	4.4%
CCCCCCCCCCCCCCCNc1nc(NCCCCCCCCCCCC)nc(NCCCN2CCOCC2)n1 [Compound N12N15D8]	1.4%	0.9%
CCCCCCCCCCCCCCCSc1nc(NCCN(CC)CC)nc(SCCCCCCCCCC)n1 [Compound S10S15D7]	7.2%	0.0%
CCCCCCCCCCCCSc1nc(NCCN2CCCC2)nc(SCCCCCCCCCC)n1 [Compound S10S12D3]	8.2%	7.6%
CCCCCCCCCCCCCCCNc1nc(NCCCCCCCCCCC)nc(NCC2CCN(C)CC2)n1 [Compound N11N15D10]	0.4%	1.6%
CCCCCCCCCCCCCCCCCCSc1nc(NCCN(CC)CC)nc(SCCCCCCCCCCCCCCCCCC)n1 [Compound S18S18D7]	0.2%	0.0%
CCCCCCNc1nc(NCCCCCC)nc(NCCN2CCN(C)CC2)n1 [Compound N6N6D5]	0.0%	0.0%
CCCCCCCCCCCCCCCSc1nc(NCCN2CCCCC2)nc(SCCCCCCCCCCCCCCC)n1 [Compound S15S15D4]	1.5%	1.5%
CCCCCCCCCCCCNc1nc(NCCCCCCCCCCC)nc(NCCN2CCOCC2)n1 [Compound N11N12D2]	0.5%	0.5%
CCCCCCCCCCCCNc1nc(NCCCCCCC)nc(NCCN2CCCC2)n1 [Compound N7N12D3]	3.5%	6.3%
CCCCCCCCCCCCCCCCCCNc1nc(NCCCCCCC)nc(NCCN2CCOCC2)n1 [Compound N7N18D2]	0.0%	0.0%
CCCCCCCCCCCCCCCCCCNc1nc(NCCCCCCCCCCCCCCCCCC)nc(NCCCN2CCN(C)CC2)n1 [Compound N18N18D9]	0.0%	0.0%
CCCCCCCCCCCCCCCCNc1nc(NCCCCCCCCCCCC)nc(NCCCN2CCN(C)CC2)n1 [Compound N12N16D9]	0.9%	0.7%
CCCCCCCCCCCCCCCCCCNc1nc(NCCCCCCCCCCCCCCCC)nc(NCCN(CC)CC)n1 [Compound N16N18D7]	0.0%	0.0%
CCCCCCCCCCCCCCCCCCNc1nc(NCCCCCCCCC)nc(NCCN2CCCCC2)n1 [Compound N9N18D4]	19.9%	1.3%
